Test results: US10173999B2, “Cyclic amine derivative and pharmaceutical use thereof” (Toray Industries, Inc., priority 2015, dated 2019)
Where a name gives a salt, the structure may show the parent alone.

Columns and labels:
[1] = system: mouse partial sciatic nerve ligation model (neuropathic pain); experiment: Mouse partial sciatic nerve ligation model (Seltzer model), von Frey test; format: in vivo; details: for persistence of analgesic action: oral administration, von Frey test at 1, 2, 3 h
Procedure: The mouse partial sciatic nerve ligation model was prepared in accordance with the method of Seltzer et al. (Malmberg et al., Pain, vol. 76, p. 215-222, 1998).
Slc: ICR mice (5 weeks old, male; from Japan SLC, Inc.) or Cr1: CD1 (ICR) mice (5 weeks old, male; from CHARLES RIVER LABORATORIES JAPAN, INC.) were anesthetized with sodium pentobarbital (70 mg/kg, intraperitoneal administration). The sciatic nerve at the femoral region of the right hind paw of each mouse was exposed and triply ligated tightly with silk suture of 8-0 (from NATSUME SEISAKUSHO CO., LTD.) under a stereomicroscope so that only half thickness of the nerve was trapped in the ligature. A group of mice thus treated was designated as a partial sciatic nerve ligation group. A group of mice whose sciatic nerve was just exposed and not ligated was designated as a sham surgery group.
Evaluation of neuropathic pain (hereinafter referred to as von Frey test) was performed as follows. Mice were conditioned for at least one hour in an acrylic cage for measurement (from NATSUME SEISAKUSHO CO. LTD. or SHINANO SEISAKUSHO) placed on a wire net. Thereafter, using a filament (from North Coast Medical or neuroscience) which exerted a pressure of 0.16 g, the mice were subjected to mechanical tactile stimulus by applying the filament to the plantar surface of the right hind paw 3 times, each for 3 seconds, with an interval of 3 seconds.
Seven days after the sciatic nerve ligation surgery, the compound of Example 1, 2, 3, 4, 5, 7, 8, 9, 10, 11, 12 or 13 (10 mg/kg for each of the compounds of Example 1, 2, 3, 4, 5, 8, 10 and 13, 0.01 to 1 mg/kg for the compound of Example 7, 0.01 to 10 mg/kg for the compound of Example 9; 0.001 to 0.1 mg/kg for the compound of Example 11; and 0.01 to 1 mg/kg for the compound of Example 12) or pregabalin as a positive control (10 mg/kg; Bosche Scientific) was dissolved in distilled water and orally administered to mice of the partial sciatic nerve ligation group. The groups of the mice in the partial sciatic nerve ligation mouse to which the compound of Example 1, 2, 3, 4, 5, 7, 8, 9, 10, 11, 12 or 13 was administered were designated as a “partial sciatic nerve ligation+the compound of Example 1” group; a “partial sciatic nerve ligation+the compound of Example 2” group; a “partial sciatic nerve ligation+the compound of Example 3” group; a “partial sciatic nerve ligation+the compound of Example 4” group; a “partial sciatic nerve ligation+the compound of Example 5” group; a “partial sciatic nerve ligation+the compound of Example 7” group; a “partial sciatic nerve ligation+the compound of Example 8” group; a “partial sciatic nerve ligation+the compound of Example 9” group; a “partial sciatic nerve ligation+the compound of Example 10” group; a “partial sciatic nerve ligation+the compound of Example 11” group; a “partial sciatic nerve ligation+the compound of Example 12” group; and a “partial sciatic nerve ligation+the compound of Example 13” group, respectively. The partial sciatic nerve ligation mouse group to which pregabalin was administered was designated as a “partial sciatic nerve ligation+pregabalin” group. A group wherein distilled water was orally administered to the mice of the partial sciatic nerve ligation group was designated as a “partial sciatic nerve ligation+distilled water” group. A group wherein distilled water was orally administered to the mice of the sham surgery group was designated as a “sham surgery+distilled water” group.
The von Frey test was carried out before oral administration of a test compound (pre-value), one hour, two hours, and three hours after the oral administration of a test compound.
Slc: ICR mice (5 weeks old, male; Japan SLC, Inc.) were anesthetized with sodium pentobarbital (70 mg/kg, intraperitoneal administration).

[2] = system: human aortic smooth muscle cells (T/G HA-VSMG); experiment: Inducibility of cytoplasmic vacuolation in human aortic smooth muscle cells; format: cell-based; details: Treatment time: 24 hours
Procedure: As a test compound, the compound of Example 3, 9, 11, 12 or compounds of Comparative Examples 2 to 6 were used. Canine aortic smooth muscle cells (Canine Aortic Smooth Muscle Cells, supply source: Toyobo Co., Ltd.) or human aortic smooth muscle cells of (T/G HA-VSMG, supply source: ATCC) were treated with a test compound (1.0 or 1.2 mmol/L in concentration) for 24 hours or 2 weeks. The cells were stained with HE, immunohistochemically for LAMP-2 or toluidine blue, and thereafter the presence or absence of cytoplasmic vacuolation was determined by using an optical microscope.

[3] = system: fibromyalgia syndrome model rats; experiment: Rat fibromyalgia syndrome model (acidic saline), allodynia by von Frey filament; format: in vivo; details: Day 7, pregabalin 10 mg/kg
Procedure: To prepare a fibromyalgia syndrome model rat (Sluka et al., Journal of Pharmacology and Experimental Therapeutics, vol. 302, p. 1146-1150, 2002; Nagakura et al., Pain, vol. 146, p. 26-33, 2009; Sluka et al., Pain, vol. 146, p. 3-4, 2009), which is generally employed widely in basic research for fibromyalgia syndrome, acidic saline (100 μL) adjusted to pH 4.0 was intramuscularly injected to the gastrocnemius muscle of the right hind paw of Crl: CD(SD) rat (6 to 7 weeks old, male; from CHARLES RIVER LABORATORIES JAPAN, INC.) under continuous inhalation anesthesia with isoflurane, twice (once in each day of Day 1 and Day 6, wherein Day 1 was the date on which the acidic saline was initially administrated). The rats thus prepared were raised in a breeding room controlled at an indoor temperature of 21 to 25° C. and an indoor humidity of 40 to 70% under the conditions of voluntary intake of food and water. In the same manner, rats to which physiological saline in place of acidic saline was intramuscularly injected were raised. The rats thus raised and not afflicted with fibromyalgia syndrome (“physiological saline+distilled water” group in FIG. 13) were also used in the experiment.
Seven days after the initial administration of acidic saline, allodynia in each rat was measured. […] Note that, measurement of allodynia was performed by use of a von Frey filament (from North Coast Medical) in accordance with the method described in a known literature (Chaplan et al., Journal of Neuroscience Methods, vol. 53, p. 55-63, 1994).
The fibromyalgia syndrome model rats thus obtained are divided into groups such that the 50% response threshold (mean value of the right hind paw and the left hind paw) of the individual groups became equal, and a test compound was administered to the fibromyalgia syndrome model rats on Day 7 after the initial administration of acidic saline.
The compound of Example 11 (0.1 to 10 mg/kg) was dissolved in distilled water and then orally administered to fibromyalgia syndrome model rats (“acidic saline+the compound of Example 11” in FIG. 13). Pregabalin serving as a positive control (10 mg/kg; from KEMPROTEC) was dissolved in distilled water and then orally administered (“acidic saline+pregabalin” in FIG. 13). As a control, distilled water was orally administered to fibromyalgia syndrome model rats (“acidic saline+distilled water” in FIG. 13). Furthermore, distilled water was orally administered to rats not afflicted with fibromyalgia syndrome (“physiological saline+distilled water” in FIG. 13). One hour and three hours after the oral administration, allodynia in individual rats was measured to evaluate an analgesic action. At this time, the 50% response threshold value in the measurement of allodynia before oral administration of the test compound on Day 7 after initial administration of acidic saline was defined as the pre-value.
To prepare a fibromyalgia syndrome model rat (Sluka et al., Journal of Pharmacology and Experimental Therapeutics, vol. 302, p. 1146-50, 2002; Nagakura et al., Pain, vol. 146, p. 26-33, 2009; Sluka et al., Pain, vol. 146, p. 3-4, 2009), which is generally employed widely in basic research for fibromyalgia syndrome, acidic saline (100 μL) adjusted to pH 4.0 was intramuscularly injected to the gastrocnemius muscle of the right hind paw of Slc: (SD) rats (6 to 7 weeks old, male; from Japan SLC, Inc.) under continuous inhalation anesthesia with isoflurane, twice (once in each of Day 1 and Day 6, wherein Day 1 was the initial administration date of the acidic saline). The rats thus prepared were raised in a breeding room controlled at an indoor temperature of 21 to 25° C. and an indoor humidity of 40 to 70% under the conditions of voluntary intake of food and water. In the same manner, rats to which physiological saline was intramuscularly injected in place of acidic saline were raised. […]

[4] = oral, 7 days after ligation, 1-3 h after dosing, 10 mg/kg (Ex 1,2,3,4,5,8,10,13, pregabalin), 0.01-1 mg/kg (Ex 7,12), 0.01-10 mg/kg (Ex 9), 0.001-0.1 mg/kg (Ex 11), vs ligation+distilled water, Welch or Shirley-Williams test

Structure (SMILES)	analgesic action in von Frey test (total score) [1, 4]	also measured
CN1CCN(C2CCN(C(=O)CC(O)c3nccn3C)CC2)CC1 (centres unmarked) [Example 3, 3-hydroxy-3-(1-methyl-1H-imidazol-2-yl)-1-(4-(4-methylpiperazin-1-yl)piperidin-1-yl)propan-1-one]	statistically significant analgesic action	Inducibility of cytoplasmic vacuolation ([2]; Concentration: 1.2 mmol/L): Absent
CC(C)C[C@H](CN)CC(=O)O [pregabalin]	–	allodynia (50% response threshold) vs acidic saline+distilled water group ([3]; Comparative Example 8: oral, Comparative Example 1 0.1 to 1 mg/kg, 1, 2 and 3 h after dosing): statistically significantly improved; allodynia (50% response threshold) vs acidic saline+distilled water group ([3]; Example 15: oral, Example 11 0.1 to 10 mg/kg, 1 and 3 h after dosing): statistically significantly improved; analgesic action in von Frey test (total score) ([1]; mouse, in vivo): statistically significant analgesic action
CCN(C)C1CCN(C(=O)CC(O)c2nccn2C)CC1 (centres unmarked) [Example 1, 1-(4-(ethylmethylamino)piperidin-1-yl)-3-hydroxy-3-(1-methyl-1H-imidazol-2-yl)propan-1-one]	statistically significant analgesic action	–
CCn1ccnc1C(O)CC(=O)N1CCC(N(C)C)CC1 (centres unmarked) [Example 8, 1-(4-(dimethylamino)piperidin-1-yl)-3-(1-ethyl-1H-imidazol-2-yl)-3-hydroxypropan-1-one]	statistically significant analgesic action	–
CN(C)C1CCN(C(=O)CC(O)c2nccn2C)CC1 (centres unmarked) [Example 7, 1-(4-(dimethylamino)piperidin-1-yl)-3-hydroxy-3-(1-methyl-1H-imidazol-2-yl)propan-1-one hydrochloride]	–	analgesic action in von Frey test (total score) ([1]; mouse, in vivo): statistically significant analgesic action; persistence of analgesic action [1]: persistence of analgesic action was confirmed
CCCCC(=O)OC(CC(=O)N1CCC(N(C)C)CC1)c1nccn1C (centres unmarked) [Example 13, 3-(4-(dimethylamino)piperidin-1-yl)-1-(1-methyl-1H-imidazol-2-yl)-3-oxopropylpentanoate]	statistically significant analgesic action	–
CN(C)[C@@H]1CCCN(C(=O)CC(O)c2nccn2C)C1 (some centres unmarked) [Example 4]	statistically significant analgesic action	–
CC(=O)OC(CC(=O)N1CCC(N(C)C)CC1)c1nccn1C (centres unmarked) [Example 12, 3-(4-(dimethylamino)piperidin-1-yl)-1-(1-methyl-1H-imidazol-2-yl)-3-oxopropyl acetate]	statistically significant analgesic action	persistence of analgesic action [1]: persistence of analgesic action was confirmed; Inducibility of cytoplasmic vacuolation ([2]; Concentration: 1.0 mmol/L): Absent
CN(C)C1CCN(C(=O)CC(O)c2nccn2CC(F)(F)F)CC1 (centres unmarked) [Example 9, 1-(4-(dimethylamino)piperidin-1-yl)-3-hydroxy-3-(1-(2,2,2-trifluoroethyl)-1H-imidazol-2-yl)propan-1-one]	statistically significant analgesic action	persistence of analgesic action [1]: persistence of analgesic action was confirmed; Inducibility of cytoplasmic vacuolation ([2]; Concentration: 1.2 mmol/L): Absent
CN(C)[C@@H]1CCN(C(=O)CC(O)c2nccn2C)C1 (stereo partly drawn) [Example 5, 1-((R)-3-(dimethylamino)pyrrolidin-1-yl)-3-hydroxy-3-(1-methyl-1H-imidazol-2-yl)propan-1-one]	statistically significant analgesic action	–
CCN(CC)C1CCN(C(=O)CC(O)c2nccn2C)CC1 (centres unmarked) [Example 2, 1-(4-(diethylamino)piperidin-1-yl)-3-hydroxy-3-(1-methyl-1H-imidazol-2-yl)propan-1-one]	statistically significant analgesic action	–
CN(C)C1CCN(C(=O)CC(O)c2nccn2C(F)F)CC1 (centres unmarked) [Example 10, 3-(1-(difluoromethyl)-1H-imidazol-2-yl)-1-(4-(dimethylamino)piperidin-1-yl)-3-hydroxypropan-1-one]	statistically significant analgesic action	–
